Measured values as given in patent US20250032504A1, “NOVEL APPLICATION OF KINASE INHIBITOR” (TRANSTHERA SCIENCES (NANJING), INC., priority 2021, published 2025).

Assays:
[1] = system: human prostate cancer LD1-0034-361929 subcutaneous xenograft tumor model; experiment: In-vivo pharmacodynamic study on human castration resistant prostate cancer PDX subcutaneous tumor model; design: species or system male Nu/Nu nude mice; settings: abiraterone-resistant CRPC PDX in nude mice, oral intragastric Qd, 39 days, compound 29 15 mg/kg, abiraterone 200 mg/kg; for TGI (%): TGI=1−T/C
Description: Test sample: compound 29 of the present invention, the structure of which is shown above, and which was prepared as described in the detailed description of WO2018108079A1. Abiraterone was obtained from commercially available sources.
Animals, information on the patient from whom the tumor masses were derived, and other materials: human prostate cancer tumor sample LD1-0034-361929, derived from a patient resistant to abiraterone; clinical diagnosis: castration resistant prostate cancer with bladder metastatic lesions, pathological diagnosis: prostate cancer-poorly differentiated adenocarcinoma; • male Nu/Nu nude mice, aged 6-8 weeks.
The tumor masses were inoculated into the right back of mice, and the animals were weighed before administration. Tumor volumes were measured, and grouping was designed in blocks according to the tumor volumes.
Administration was carried out as in the table below.
The animals were monitored daily for health status and mortality, body weight and tumor volume were measured twice a week, and samples were collected after the last administration. The therapeutic effect on tumor volume was evaluated by TGI %, wherein the relative tumor inhibition rate TGI (%): TGI=1−T/C (%). T/C % is the relative tumor proliferation rate, i.e., the percentage of the relative tumor volume in the treatment and control groups at a given time point. T and C are relative tumor volumes (RTVs) of the treatment and control groups at a given time point, respectively. The calculation formula is as follows: T/C %=TRTV/CRTV×100% (TRTV: mean RTV for treatment group; CRTV: mean RTV for vehicle control group; RTV=Vt/V0, wherein V0 is the tumor volume of the animal at the time of grouping, and Vt is the tumor volume of the animal after treatment).

[2] = system: metastatic castration resistant prostate cancer; experiment: Clinical study in patients with metastatic castration resistant prostate cancer; type: in vivo, human; settings: among 11 mCRPC patients with response evaluation data (10 at 12 mg, 1 at 10 mg), oral once daily, 28-day cycles
Description: Test medicament: compound 29, the structure of which is shown above, and which was prepared as described in the detailed description of WO2018108079A1.
Inclusion criteria: patients with histopathologically or cytologically confirmed metastatic castration resistant prostate cancer for which no standard therapy is available.
Dosing regimen: compound 29 was administered orally at a prescribed dose (such as 8 mg, 10 mg, or 12 mg) once daily, with 28 consecutive days of administration being one cycle.
Response evaluation: among the 11 patients with response evaluation data (10 patients received a single dose of 12 mg, and 1 patient received a single dose of 10 mg), 7 patients achieved partial response (PR), and 2 patients reported stable disease (SD).

DU145 = experiment: Prostate cancer cell proliferation assay (Cell titer-Glo, 72 h), DU145; type: cell-based; settings: Homo sapiens, DU-145, DU145 cells, inhibition of proliferation, read-out: Compound IC50/nM
Description: (§1) Prostate cancer cell materials: DU145, PC-3, VCaP, and LNCaP clone FGC.
(§2) Test instrument: PE Envision multimode microplate reader.
(§3) Each cell line was seeded in a 384-well plate for adherent culture overnight, and then compounds at different concentrations (10 dose groups, serial 4-fold dilution with DMSO) were added to give a maximum final concentration of 10000 nM, wherein the final DMSO content was 0.33%, and staurosporine at a final concentration of 10 μM was used as a system positive control ([…] inhibition). Negative control wells contained medium with the same amount of DMSO (0% inhibition). The plate was incubated at 37° C., 5% CO2 and 95% humidity for 72 h for later test. 30 μL of Cell titer-Glo reagent was added to each well, and after the plate was incubated at room temperature for 30 min, the final data were read using the microplate reader.
(§4) The data were calculated as follows:
(§5) Inhibition rate (%)=100%−(compound signal−system positive control signal)/(negative control signal−system positive control signal)[…].

VCaP = experiment: Prostate cancer cell proliferation assay (Cell titer-Glo, 72 h), VCaP; type: cell-based; settings: Homo sapiens, VCaP cells, inhibition of proliferation, read-out: Compound IC50/nM
Description: as §1, §2, §3, §4, §5

LNCaP clone FGC = experiment: Prostate cancer cell proliferation assay (Cell titer-Glo, 72 h), LNCaP clone FGC; type: cell-based; settings: Homo sapiens, LNCaP clone FGC cells, inhibition of proliferation, read-out: Compound IC50/nM
Description: as §1, §2, §3, §4, §5

PC-3 = experiment: Prostate cancer cell proliferation assay (Cell titer-Glo, 72 h), PC-3; type: cell-based; settings: Homo sapiens, PC-3 cells, inhibition of proliferation, read-out: Compound IC50/nM
Description: as §1, §2, §3, §4, §5

C[C@]12CC[C@H](O)CC1=CC[C@@H]1[C@@H]2CC[C@]2(C)C(c3cccnc3)=CC[C@@H]12 [Abiraterone, reference compound]
Tumor volume (mm^3) [1]: 1549.43 ± 533.15 mm^3
TGI (%) [1]: −8.97%

Cc1[nH]nc2c1N=C(c1ccccc1Cl)c1cnc(N3CCOCC3)cc1N2 [Compound 29]
patients achieved partial response (PR) [2]: 7 patients
IC50 (DU145): < 1000 nM
Tumor volume (mm^3) [1]: 622.23 ± 247.3 mm^3
TGI (%) [1]: 58.07%
IC50 (VCaP): < 1000 nM
IC50 (LNCaP clone FGC): 1000 to 10000 nM
IC50 (PC-3): < 1000 nM
